Here are results for one compound from paper PMC8880313, “Discovery of Novel Andrographolide Derivatives as Antiviral Inhibitors against Human Enterovirus A71” (Pharmaceuticals, 2022).

One test concerns EV-D68. The test can be described thus: Post-treatment assay, antiviral spectrum. Type of test: cell-based, Enterovirus D68. How it is done: (§1) We were also interested in the antiviral potential of ZAF-47 against other Enteroviruses. As such, we performed post-treatment assay on RD cells infected with other Enteroviruses such as CV-A16, CV-A6, Echo7, CV-B5, CV-A24 and EV-D68.
(§2) To determine the inhibitory profiles of the hits, post treatment assay was performed. Seeded 24-well plates, with 1.5 × 10^5 RD cells per well, were incubated overnight at 37 °C with 5% CO2. The seeded cells were infected with EV-A71 (100 µL per well, MOI = 1) for 1 h at 37 °C with 5% CO2 and then rinsed with 1 mL of PBS twice. Different concentrations of the hits were used to treat the infected cells for 12 h at 37 °C with 5% CO2. At 12 hpi, the plates were frozen and thawed for 2 cycles (−80°C; 37 °C) before collection of supernatants to measure the viral titres via viral plaque assay.
(§3) Measurement of the viral titres from collected supernatants was derived from viral plaque assays. To do this, 24-well plates, seeded with 2.4 × 10^5 RD cells per well, were used in plaque assays for EV-A71, EV-D68, Echo7, CV-A6, CV-A16 and CV-A24 while 24-well plates, seeded with 1.2 × 10^5 Vero cells per well, were used in plaque assays for CV-B5. Seeded cells were incubated overnight at 37 °C with 5% CO2. […] Subsequent formation of viral plaques was counted manually to quantify the viral titre in PFU/mL […]

Another test has as its system EV-A71. The test can be described thus: Pre-treatment assay. Type of test: cell-based, human enterovirus A71 (EV-A71) strain 41. As to conditions: pre-treatment 2 h, highest concentration, 12 hpi. How it is done: (§4) To confirm this finding, assays to investigate the effect of ZAF-47 on EV-A71 entry into cells were performed. With pre-treatment assay, we first treated the cells with different concentrations of ZAF-47 before subjecting them to EV-A71 infection. The aim was to investigate if ZAF-47 was able to bind to host surface receptors which would prevent the virions from binding and thus blocking viral entry. […] Even at the highest concentration, the reduction in viral titre (0.8 log10 PFU/mL decrease) was not as pronounced as post-treatment and could likely be due to drug toxicity. Thus, it is unlikely that ZAF-47 inhibits EV-A71 infection by binding with host receptors to block viral entry. With co-treatment assay, we first treated EV-A71 virions with ZAF-47 for 30 min before infecting the cells. The aim was to investigate if ZAF-47 was able to bind to viral surface proteins which would prevent the virions from binding to the host receptors and thus blocking viral entry. […] Thus, it is unlikely that ZAF-47 blocks EV-A71 entry into host cells by binding to viral surface proteins. Instead, using entry bypass assay, we were able to deduce that ZAF-47 most likely targets EV-A71 post-entry stages. […]
(§5) Seeded 24-well plates, with 1.5 × 10^5 RD cells per well, were incubated overnight at 37 °C with 5% CO2. […] The plates were frozen down at 12 hpi for viral titre quantification using viral plaque assay.

The subject of a further test is Echo7. The test is described as follows: Post-treatment assay, antiviral spectrum. Type of test: cell-based, Echovirus 7 strain Wallace. As for the experimental part:
as §1, §2, §3

The subject of the next test is EV-A71 RNA. The test is described as follows: Entry bypass assay (EV-A71 RNA transfection). As to conditions: 12 hpi. The class given is cell-based, human enterovirus A71 (EV-A71) strain 41. How it is done: as §4, §5
A further test deals with CV-A16. The test can be described thus: Post-treatment assay, antiviral spectrum. Type of test: cell-based, Coxsackievirus A16. How it is done:
as §1
To determine the inhibitory profiles of the hits, post treatment assay was performed. Seeded 24-well plates, with 1.5 × 10^5 RD cells per well, were incubated overnight at 37 °C with 5% CO2. The seeded cells were infected with EV-A71 (100 µL per well, MOI = 1) for 1 h at 37 °C with 5% CO2 and then rinsed with 1 mL of PBS twice. […]
as §3, with “CO2. Viral supernatants were diluted from 10^−1 to 10^−7 in reduced serum DMEM before infecting the cells with a volume of 100 µL for 1 h at 37 °C with 5% CO2 (33 °C instead for EV-D68). Cells were rinsed twice with PBS before overlaying with 1 mL of reduced serum DMEM containing 0.5% agarose (Vivantis, Shah Alam, Malaysia).” for “CO2.”

Molecules are shown by their SMILES.

As usually defined, the IC50 is the midpoint of a concentration-inhibition curve. As to `CC(=O)OC[C@]1(C)C(=O)CC[C@@]2(C)C(C/C=C3/C(=O)OC[C@@H]3Oc3cccc4cccnc34)=C(C)CC[C@@H]21` [ZAF-47, (14β)-(8′-Quinolinoxy)-3-ketone-9-dehydro-17-hydro-19-acetoxy–andrographolide], the viral titre entry is listed as “reducing the viral titres of the above-listed enteroviruses significantly” in the test with EV-D68 (10 µM, EV-D68-infected RD cells); “reducing the viral titres of the above-listed enteroviruses significantly” with Echo7 (10 µM, Echo7-infected RD cells); “reducing the viral titres of the above-listed enteroviruses significantly” in the test with CV-A16 (10 µM, CV-A16-infected RD cells). Moreover, the half-inhibitory concentration (IC50) in the test with EV-D68 (EVD68, EV-D68, Enterovirus D, drug treatment duration 12 h, RD cells) is 5.1 µM; in the test on Echo7 (Echo7, Enterovirus B, drug treatment duration 12 h, RD cells), 6.7 µM; in the test on CV-A16 (CVA16, CV-A16, Enterovirus A, drug treatment duration 16 h, RD cells), 1.38 µM. The “reduction in viral titre” value in the test with EV-A71 came to 0.8 log10 PFU/mL. In addition, the viral reduction in the test with EV-A71 RNA (10 µM) was determined as 0.9 log; with EV-A71 RNA (20 µM) it was 2.6 log.
